Patent US11505548B2, “Heterocyclic compounds and their use for treatment of helminthic infections and diseases” (Celgene Corporation, priority 2019, dated 2022)
pIC50: −log10 of the molar value.

Test system: microfilariae of Dirofilaria immitis
Test: Dirofilaria immitis, Microfilaria (DiMF) Assay
Assay type: cell-based
Settings: read-out: D. immitis activity level (IC50 or MED)
Procedure: Heartworm Screen Dirofilaria immitis (D. immitis)
Dirofilaria immitis, Microfilaria (DiMF) Assay.
Compounds were dissolved and serially diluted in DMSO. Aliquots were spotted to the empty wells of assay plates. Media and microfilariae of Dirofilaria immitis were added to each well to dilute the test compounds to the desired concentrations. Assay plates were incubated for approximately 72 hours, and the larvae in each well were observed microscopically for drug effect. Microfilariae in each well were assessed subjectively for survival or paralysis, and results were reported as Minimum Effective Dose (MED).
Active and selective (DiL4 vs. DiMF potency) example compounds were subsequently evaluated in heartworm positive dog studies to correlate the in vitro selectivity profile with in vivo effects on circulating microfilariae.

CC(C)Oc1cccnc1-c1nsc(Nc2cc(N3CCCC3)ccn2)n1 [Compound 94, 3-(3-isopropoxy-pyridin-2-yl)-N-(4-(pyrrolidin-1-yl)pyridin-2-yl)-1,2,4-thiadiazol-5-amine]
pIC50: 5.30 to 6.30

CC(C)c1cnc(Nc2nc(-c3ccc(OC4CC4)cn3)ns2)cc1C(F)(F)F [Compound 95, 3-(5-cyclopropoxy-pyridin-2-yl)-N-(5-isopropyl-4-(trifluoromethyl)pyridin-2-yl)-1,2,4-thiadiazol-5-amine]
pIC50: > 6.70

CC(C)c1cnc(Nc2nc(-c3cc(OC4CC4)ccn3)ns2)cc1C(F)(F)F [Compound 96, 3-(4-cycloprop-oxypyridin-2-yl)-N-(5-isopropyl-4-(trifluoromethyl)pyridin-2-yl)-1,2,4-thiadiazol-5-amine]
pIC50: > 6.70

CC(C)c1cnc(Nc2nc(-c3ncccc3OC3CC3)ns2)cc1C(F)(F)F [Compound 97, 3-(3-cycloprop-oxypyridin-2-yl)-N-(5-isopropyl-4-(trifluoromethyl)pyridin-2-yl)-1,2,4-thiadiazol-5-amine]
pIC50: > 6.70

Cc1cccnc1Nc1nc(-c2cc(C(F)(F)F)c(OC3CC3)cn2)ns1 [Compound 102, 3-(5-cyclo-propoxy-4-(trifluoromethyl)pyridin-2-yl)-N-(3-methyl-pyridin-2-yl)-1,2,4-thiadiazol-5-amine]
pIC50: 6.30 to 6.70

O=C(NC1CC(F)(F)C1)c1ccc(Nc2nc(-c3ccc(OC4CC4)cn3)ns2)nc1 [Compound 107, 6-(3-(5-cyclo-propoxypyridin-2-yl)-1,2,4-thiadiazol-5-ylamino)-N-(3,3-difluoro-cyclobutyl) nicotinamide]
pIC50: 5.30 to 6.30

CNc1cccnc1Nc1nc(-c2ccc(OC(C)C)cn2)ns1 [Compound 108, N2-(3-(5-isopropoxypyridin-2-yl)-1,2,4-thiadiazol-5-yl)-N3-methyl-pyridine-2,3-diamine]
pIC50: 6.30 to 6.70

Cc1cccnc1Nc1nc(-c2cc(C(F)(F)F)c(OCC3CC3)cn2)ns1 [Compound 110, 3-(5-(cyclo-propylmethoxy)-4-(trifluoromethyl)pyridin-2-yl)-N-(3-methyl-pyridin-2-yl)-1,2,4-thiadiazol-5-amine]
pIC50: 6.30 to 6.70

CC(C)Oc1ccc(-c2nsc(Nc3ncccc3C(C)C)n2)nc1 [Compound 115, 3-(5-isopropoxy-pyridin-2-yl)-N-(3-isopropyl-pyridin-2-yl)-1,2,4-thiadiazol-5-amine]
pIC50: > 6.70

CC(C)Oc1ccc(-c2nsc(Nc3ncccc3N3CCCC3)n2)nc1 [Compound 116, 3-(5-isopropoxy-pyridin-2-yl)-N-(3-(pyrrolidin-1-yl)pyridin-2-yl)-1,2,4-thiadiazol-5-amine]
pIC50: 5.30 to 6.30

CN(C)c1cccnc1Nc1nc(-c2ccc(OCC3CC3)cn2)ns1 [Compound 118, N2-(3-(5-(cyclopropyl-methoxy)pyridin-2-yl)-1,2,4-thiadiazol-5-yl)-N3,N3-dimethyl-pyridine-2,3-diamine]
pIC50: 5.30 to 6.30

CN(C)c1cccnc1Nc1nc(-c2ccc(OC(F)F)cn2)ns1 [Compound 120, N2-(3-(5-(difluoromethoxy)pyridin-2-yl)-1,2,4-thiadiazol-5-yl)-N3,N3-dimethyl-pyridine-2,3-diamine]
pIC50: 5.30 to 6.30

CN(C)c1cccnc1Nc1nc(-c2ccc(F)cn2)ns1 [Compound 121, N2-(3-(5-fluoro-pyridin-2-yl)-1,2,4-thiadiazol-5-yl)-N3,N3-dimethylpyridine-2,3-diamine]
pIC50: 5.30 to 6.30

Cc1cccnc1Nc1nc(-c2cnc(OC(C)C)cn2)ns1 [Compound 124, 3-(5-isopropoxy-pyrazin-2-yl)-N-(3-methyl-pyridin-2-yl)-1,2,4-thiadiazol-5-amine]
pIC50: 5.30 to 6.30

CC(C)c1cccnc1Nc1nc(-c2ccc(OC(F)F)cn2)ns1 [Compound 127, 3-(5-(difluoro-methoxy)pyridin-2-yl)-N-(3-isopropyl-pyridin-2-yl)-1,2,4-thiadiazol-5-amine]
pIC50: 5.30 to 6.30
